Experimental data published in the NIST ThermoML archive (doi:10.1021/je049789+).
± gives the expanded uncertainty stated by the source.

Details: Liquid, Closed cell (Static) method

vapor or sublimation pressure (258.15 K) [kPa] | vapor or sublimation pressure (273.15 K) [kPa] | vapor or sublimation pressure (293.15 K) [kPa] | SMILES
488.1 ± 2.6 | 814 ± 3.3 | 1474.6 ± 4.8 | FCF [difluoromethane]
152.9 ± 2.1 | 266.8 ± 2.2 | 509.3 ± 2.7 | COC [dimethyl ether]
